These results are taken from patent publication EP3722296B1, “DIHYDRONAPHTHYRIDINES AND RELATED COMPOUNDS USEFUL AS KINASE INHIBITORS FOR THE TREATMENT OF PROLIFERATIVE DISEASES” (Deciphera Pharmaceuticals, LLC, priority 2012, dated 2013).

Structures are written as SMILES.

In one test the target is T1, c-KIT D816V kinase (Homo sapiens, UniProt P10721, D816V).
T1 construct: residues T544-V976 with N-terminal GST fusion; purchased deCODE Biostructures
The experiment in a line: c-KIT D816V kinase Assay. It counts as biochemical. The note with it: enzymatic assay, ATP 200 uM. An outline of the steps: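 Coupled assay in which NADH oxidation was tracked as decreasing absorbance at 340 nm, continuously for 5 hours at 30 °C after adding serially diluted compound. Enzyme: cKit residues T544-V976 with N-terminal tag, GST fusion and TEV cleavage site.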

For a further test, the target named is T2, c-KIT VVDV kinase (Homo sapiens, UniProt P10721, D816V/DEL559-560).
T2 construct: This construct contains residues T544-V976 of cKit; GST (N); TEV cleavage site (internal); purchased deCODE Biostructures
The experiment in a line: cKIT-VVDV kinase Assay. The following applies: enzymatic assay; V559+V560 deletions and D816V mutation. It counts as biochemical. The method, then:
In this assay, the oxidation of NADH (measured by decrease in absorbance at 340 nm) was continuously monitored spectrophotometrically. […] The inhibition reaction was started by mixing serial diluted test compound with the above reaction mixture. The absorption at 340 nm was monitored continuously for 5 hours at 30 °C on Synergy 2 plate reader (BioTech). […] The protein construct was prepared by deCODE Biostructures using procedures known in the art. […] This construct is identical to Seq ID no.

A further test deals with T3, c-KIT T670I kinase (Homo sapiens, UniProt P10721, T670I).
T3 construct: The construct contains residues T544-V976 of cKit; GST (N); TEV cleavage site (internal); purchased deCODE Biostructures
The experiment in a line: c-KIT T670I kinase assay. The following applies: enzymatic assay. Type of test: biochemical. An outline of the steps:
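Coupled spectrophotometric assay following NADH oxidation as absorbance decrease at 340 nm, monitored continuously for 5 h at 30 °C after adding serially diluted compound. Enzyme is a cKit construct with N-terminal tag, GST fusion and TEV site, carrying the T670I mutation.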

Test [1] concerns Phospho-KIT (Tyr719). Put plainly: GIST430 KIT Western Blot. Type of test: cell-based. The following applies: GIST430 cells, 4 hours, serum-free medium; read-out: pKIT suppression by western blot analysi GIST430. The method, then:
(§1) GIST48, GIST430, and GIST882 cells were obtained from J. Fletcher (Brigham and Women's Hospital, Boston, MA). GIST T1 cells were obtained from B. Rubin (Cleveland Clinic, Cleveland, OH) and Professor Takahiro Taguchi (Kochi Medical School, Nankoku, Kochi, Japan). […] GIST430 cells were grown in Ham's F10 medium supplemented with 15% characterized fetal bovine serum (Invitrogen, Carlsbad, CA), 30 mg/L bovine pituitary extract (BD Biosciences, San Jose, CA), 0.5% Mito+ serum extender (BD Biosciences, San Jose, CA), 1 unit/mL penicillin G, 1 µg/ml streptomycin, and 0.29 mg/mL L-glutamine at 37 °C, 5%CO2, 95% humidity. GIST T1 cells were grown in DMEM medium supplemented with 10% characterized fetal bovine serum (Invitrogen, Carlsbad, CA), 1 unit/mL penicillin G, 1 µg/ml streptomycin, and 0.29 mg/mL L-glutamine at 37 °C, 5% CO2, and 95% humidity.
(§2) One hundred fifty thousand cells were added per well in a 24-well tissue-culture treated plate. […] Medium was aspirated, cells were washed with PBS, and serum-free Ham's F10 medium was added. […] Cells were washed with PBS, then lysed. Cell lysates were separated by SDS-PAGE and transferred to PVDF. Phospho-KIT (Tyr719) was detected using an antibody from Cell Signaling Technology (Beverly, MA), ECL Plus detection reagent (GE Healthcare, Piscataway, NJ) and a Molecular Devices Storm 840 phosphorimager in fluorescence mode. Blots were stripped and probed for total KIT using an antibody from Santa Cruz Biotech (Santa Cruz, CA). IC50 values were calculated using Prism software (Graphpad, San Diego, CA).
(In general: Immunoblotting shows a protein as a band on a membrane.)

The subject of test [2] is Phospho-KIT (Tyr719). Put plainly: GIST48 KIT Western Blot. It counts as cell-based. The following applies: GIST48 cells, 4 hours, serum-free medium; read-out: pKIT suppression by western blot analysi GIST48. An outline of the steps: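 Phospho-KIT (Tyr719) was immunoblotted on PVDF and imaged in fluorescence mode after ECL Plus, with stripping and reprobing for total KIT. IC50 values were derived from the blot signals.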

Test [3] deals with T4, Phospho-KIT (Tyr719) (Homo sapiens, UniProt P10721, K642E).
T4 construct: endogenous in cells; host or cells: GIST882
Put plainly: GIST882 KIT Western Blot. Type of test: cell-based. The note with it: GIST882 cells, 4 hours, serum-free medium; read-out: pKIT suppression by western blot analysi GIST 882. How it is done: as §1
as §2, with “Two” for “One”, “RPMI1640” for “Ham's F10”

Another test deals with T5, c-KIT V654A kinase (Homo sapiens, UniProt P10721, V654A).
T5 construct: residues T544-V976 with N-terminal GST fusion; purchased deCODE Biostructures
Put plainly: c-KIT V654A Kinase Assay. Type of test: biochemical. The following applies: enzymatic assay, ATP 200 µM. Put shortly:
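Construct: cKIT residues T544–V976 with N-terminal tag, GST fusion and TEV site. Reaction started by adding serially diluted compound to the enzyme mixture; NADH oxidation, coupled to kinase turnover, followed as the decrease in A340 for 6 h at 30 °C.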

For a further test, the system named is GIST T1 cells. Put plainly: GIST T1 Cell Proliferation Assay. The following applies: Homo sapiens, GISTT1, 72 h, 68 hours + 4 hours resazurin. Type of test: cell-based.
For another test, the target named is c-KIT kinase (Homo sapiens, UniProt P10721). Put plainly: c-KIT kinase Assay. The note with it: enzymatic assay, ATP 200 µM; read-out: KIT (wt) IC50. It counts as biochemical. Also noted: cKIT residues T544-V976; GST (N); TEV cleavage site (internal); purchased deCODE Biostructures. Put shortly:
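Activity of wild-type human c-KIT kinase was followed as NADH oxidation, read as falling absorbance at 340 nm on a Synergy 2 plate reader (BioTeK) for 2 hours at 30 °C. Rates from the 0 to 1 h window were compared with an uninhibited control to give percent inhibition. IC50 values were fitted in GraphPad Prism across a range of inhibitor concentrations.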

For a further test, the target named is T6, c-KIT D816H kinase (Homo sapiens, UniProt P10721, D816H).
T6 construct: The construct contains residues T544-V976 of cKit; GST (N); TEV cleavage site (internal); purchased deCODE Biostructures
The experiment in a line: c-KIT D816H Kinase Assay. It counts as biochemical. The note with it: enzymatic assay, ATP 200 µM. An outline of the steps: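 Coupled spectrophotometric assay following NADH oxidation as absorbance decrease at 340 nm, monitored continuously for 6 hours at 30 °C after adding serially diluted compound. Enzyme: mutant cKit construct with N-terminal tag, GST fusion and TEV cleavage site.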

T5 sequence (P10721 544-976 V654A): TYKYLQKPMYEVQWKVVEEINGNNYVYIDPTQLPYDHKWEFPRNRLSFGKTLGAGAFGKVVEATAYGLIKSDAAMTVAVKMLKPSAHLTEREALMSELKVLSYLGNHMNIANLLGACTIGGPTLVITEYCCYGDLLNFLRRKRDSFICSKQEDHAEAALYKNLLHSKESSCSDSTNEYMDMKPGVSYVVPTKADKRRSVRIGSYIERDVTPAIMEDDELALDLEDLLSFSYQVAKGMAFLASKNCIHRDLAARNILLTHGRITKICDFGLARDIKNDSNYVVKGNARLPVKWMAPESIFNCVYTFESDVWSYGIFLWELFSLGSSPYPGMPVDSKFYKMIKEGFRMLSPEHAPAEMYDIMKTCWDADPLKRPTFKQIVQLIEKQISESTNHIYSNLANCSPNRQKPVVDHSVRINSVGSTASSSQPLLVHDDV
T2 sequence (P10721 with tags, fused parts or gaps DEL559-560/D816V): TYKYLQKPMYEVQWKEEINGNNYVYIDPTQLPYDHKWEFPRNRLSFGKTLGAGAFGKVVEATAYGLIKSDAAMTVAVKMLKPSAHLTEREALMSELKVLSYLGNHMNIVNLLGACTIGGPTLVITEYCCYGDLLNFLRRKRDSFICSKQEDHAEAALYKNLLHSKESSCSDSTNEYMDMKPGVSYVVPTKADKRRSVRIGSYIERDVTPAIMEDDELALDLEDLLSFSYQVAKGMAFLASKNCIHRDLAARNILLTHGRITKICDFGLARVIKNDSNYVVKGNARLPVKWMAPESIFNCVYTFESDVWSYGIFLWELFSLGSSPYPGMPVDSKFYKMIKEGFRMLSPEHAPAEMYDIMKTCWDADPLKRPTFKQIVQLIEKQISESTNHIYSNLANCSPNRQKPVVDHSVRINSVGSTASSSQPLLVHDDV
T4 sequence (P10721 26-976 K642E): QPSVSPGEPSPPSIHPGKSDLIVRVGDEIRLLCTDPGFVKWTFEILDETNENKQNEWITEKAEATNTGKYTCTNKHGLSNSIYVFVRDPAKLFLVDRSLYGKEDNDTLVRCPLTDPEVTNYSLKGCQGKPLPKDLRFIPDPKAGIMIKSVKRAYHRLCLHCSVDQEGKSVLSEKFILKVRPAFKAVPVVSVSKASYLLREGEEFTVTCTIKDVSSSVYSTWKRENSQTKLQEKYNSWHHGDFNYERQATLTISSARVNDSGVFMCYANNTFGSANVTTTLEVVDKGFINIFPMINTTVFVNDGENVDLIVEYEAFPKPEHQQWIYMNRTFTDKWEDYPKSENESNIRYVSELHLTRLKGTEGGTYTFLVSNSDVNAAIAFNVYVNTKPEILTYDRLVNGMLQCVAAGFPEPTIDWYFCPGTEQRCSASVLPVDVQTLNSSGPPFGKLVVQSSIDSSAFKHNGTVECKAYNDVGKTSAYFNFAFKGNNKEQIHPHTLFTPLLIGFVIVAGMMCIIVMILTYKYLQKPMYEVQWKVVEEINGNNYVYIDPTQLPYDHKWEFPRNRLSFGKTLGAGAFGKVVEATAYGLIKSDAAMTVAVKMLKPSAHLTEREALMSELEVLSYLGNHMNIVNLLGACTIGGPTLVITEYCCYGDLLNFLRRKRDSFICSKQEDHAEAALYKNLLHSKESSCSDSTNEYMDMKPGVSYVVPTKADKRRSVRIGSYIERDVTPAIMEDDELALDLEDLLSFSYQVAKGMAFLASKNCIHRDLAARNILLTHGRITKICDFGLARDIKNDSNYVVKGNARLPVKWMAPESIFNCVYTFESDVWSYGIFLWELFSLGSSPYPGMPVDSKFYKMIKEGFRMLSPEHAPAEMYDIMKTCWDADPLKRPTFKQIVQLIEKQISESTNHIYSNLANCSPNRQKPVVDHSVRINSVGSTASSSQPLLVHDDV
T1 sequence (P10721 544-976 D816V): as the sequence (P10721 544-976 V654A) above, with A111V, D273V counted along it
c-KIT kinase, sequence (P10721 544-976): as the sequence (P10721 544-976 V654A) above, with A111V counted along it
T3 sequence (P10721 544-976 T670I): as the sequence (P10721 544-976 V654A) above, with A111V, T127I counted along it
T6 sequence (P10721 544-976 D816H): as the sequence (P10721 544-976 V654A) above, with A111V, D273H counted along it

As to `CNc1cc2c(cn1)cc(-c1cc(NC(=O)Nc3csc4ccccc34)c(F)cc1F)c(=O)n2C` [Example 14, 1-(benzo[b]thiophen-3-yl)-3-(2,4-difluoro-5-(1-methyl-7-(methylamino)-2-oxo-1,2-dihydro-1,6-naphthyridin-3-yl)phenyl)urea], the IC50 on c-KIT D816V kinase was 10 to 100 nM; at c-KIT VVDV kinase, 10 to 100 nM; on c-KIT T670I kinase it was under 10 nM; in the test on Phospho-KIT (Tyr719) [1] it was 10 to 100 nM; in the test with Phospho-KIT (Tyr719) [2] it was under 10 nM; at Phospho-KIT (Tyr719) [3] it was under 10 nM.

As to `CC(=O)Nc1cc2c(cn1)cc(-c1cc(NC(=O)Nc3ccccc3)c(F)cc1Cl)c(=O)n2C(C)C` [Example 86, N-(3-(2-chloro-4-fluoro-5-(3-phenylureido)phenyl)-1-isopropyl-2-oxo-1,2-dihydro-1,6-naphthyridin-7-yl)acetamide], the IC50 is 10 to 100 nM on c-KIT V654A kinase; under 10 nM at c-KIT D816V kinase; 10 to 100 nM at c-KIT T670I kinase; 10 to 100 nM in the test on Phospho-KIT (Tyr719) [1]; under 10 nM with Phospho-KIT (Tyr719) [2]; under 10 nM at Phospho-KIT (Tyr719) [3]. Besides, the IC50 in the test on GIST T1 cells and at c-KIT kinase was under 10 nM each time.

Take `CCn1c(=O)c(-c2cc(NC(=O)Nc3cccc4ccccc34)c(F)cc2C)cc2cnc(NC)cc21` [Example 1, 1-(5-(1-ethyl-7-(methylamino)-2-oxo-1,2-dihydro-1,6-naphthyridin-3-yl)-2-fluoro-4-methylphenyl)-3-(naphthalen-1-yl)urea]: the IC50 is 10 to 100 nM at c-KIT D816H kinase; 10 to 100 nM at c-KIT D816V kinase; 10 to 100 nM on c-KIT VVDV kinase; under 10 nM on c-KIT T670I kinase; under 10 nM in the test with Phospho-KIT (Tyr719) [1]; 10 to 100 nM in the test on Phospho-KIT (Tyr719) [2]. In addition, the IC50 on Phospho-KIT (Tyr719) [3] is 100 to 1000 nM; at c-KIT kinase it was under 10 nM.

In the case of `CCn1c(=O)c(-c2cc(NC(=O)Nc3ccccc3)c(F)cc2Cl)cc2cnc(NC(=O)N3CC[C@@H](N(C)C)C3)cc21` [Example 84, (R)-N-(3-(2-chloro-4-fluoro-5-(3-phenylureido)phenyl)-1-ethyl-2-oxo-1,2-dihydro-1,6-naphthyridin-7-yl)-3-(dimethylamino)pyrrolidine-1-carboxamide], the IC50 at c-KIT V654A kinase was in the range of 100 to 1000 nM; at c-KIT D816H kinase, 10 to 100 nM; on c-KIT D816V kinase, 10 to 100 nM; at c-KIT T670I kinase, 10 to 100 nM; with Phospho-KIT (Tyr719) [1], 10 to 100 nM; with Phospho-KIT (Tyr719) [2], 10 to 100 nM. For the same molecule, the values for the IC50 at Phospho-KIT (Tyr719) [3] and at c-KIT kinase were 10 to 100 nM and under 10 nM, respectively.

As to `CCn1c(=O)c(-c2cc(NC(=O)Nc3cccc(F)c3)c(F)cc2F)cc2cnc(NC)cc21` [Example 15, 1-(5-(1-ethyl-7-(methylamino)-2-oxo-1,2-dihydro-1,6-naphthyridin-3-yl)-2,4-difluorophenyl)-3-(3-fluorophenyl)urea], the IC50 at c-KIT V654A kinase is under 10 nM; at c-KIT D816H kinase, 10 to 100 nM; at c-KIT D816V kinase, 10 to 100 nM; on c-KIT VVDV kinase, 10 to 100 nM; on c-KIT T670I kinase, 10 to 100 nM; in the test with Phospho-KIT (Tyr719) [1] it was 10 to 100 nM. Further, the IC50 in the test with Phospho-KIT (Tyr719) [2] was 10 to 100 nM; on Phospho-KIT (Tyr719) [3] it was 10 to 100 nM; on c-KIT kinase it was under 10 nM.

With `CCn1c(=O)c(-c2cc(NC(=O)Nc3ccccc3)c(F)cc2F)cc2cnc(NC)cc21` [Example 16, 1-(5-(1-ethyl-7-(methylamino)-2-oxo-1,2-dihydro-1,6-naphthyridin-3-yl)-2,4-difluorophenyl)-3-phenylurea], the IC50 at c-KIT V654A kinase was under 10 nM; on c-KIT D816H kinase, 10 to 100 nM; at c-KIT D816V kinase, 10 to 100 nM; at c-KIT VVDV kinase, 10 to 100 nM; on c-KIT T670I kinase, 10 to 100 nM; in the test with Phospho-KIT (Tyr719) [1], 100 to 1000 nM. Further, the IC50 in the test on Phospho-KIT (Tyr719) [2] is 100 to 1000 nM; on Phospho-KIT (Tyr719) [3], 10 to 100 nM; on c-KIT kinase, under 10 nM.
